According to BigSolDB 2.1:

Nc1ccnc(=O)[nH]1
solubility (mole fraction)
Conditions	288.15 K	293.15 K	298.15 K	303.15 K	308.15 K	313.15 K	318.15 K	323.15 K	328.15 K
in DMSO	–	0.00997	0.0105	0.0111	0.012	0.0129	0.0136	0.0145	0.0155
in ethanol	0.000339	0.000348	0.000372	0.000423	0.000451	0.000497	0.000523	0.000609	0.000692
in isobutanol	0.000144	0.000162	0.000175	0.0002	0.000224	0.000268	0.000309	0.00035	0.000394
in isopentanol	0.000201	0.000221	0.000253	0.000278	0.000308	0.000344	0.000374	0.000415	0.000483
in isopropanol	0.000159	0.000175	0.000187	0.000205	0.00024	0.000283	0.000316	0.000358	0.000412
in methanol	0.000721	0.000808	0.000897	0.000999	0.00112	0.00125	0.00143	0.00159	0.00177
in n-butanol	0.000171	0.000193	0.000221	0.000241	0.000274	0.000301	0.000344	0.000389	0.000439
in n-hexanol	0.000139	0.000153	0.000168	0.000187	0.000213	0.000251	0.00029	0.000337	0.000378
in n-octanol	0.000102	0.000108	0.00012	0.000133	0.000153	0.000188	0.00023	0.000266	0.000304
in n-pentanol	0.000165	0.000185	0.000197	0.000228	0.000254	0.000293	0.00033	0.000369	0.000425
in n-propanol	0.000218	0.000235	0.000273	0.000303	0.000329	0.000373	0.000433	0.000526	0.000588
in sec-butanol	0.000128	0.000137	0.000149	0.000165	0.000191	0.000234	0.000279	0.000321	0.000367
in tert-butanol	–	–	–	0.000269	0.00036	0.000461	0.000706	0.000848	0.00118
in water	0.000768	0.000899	0.00112	0.00145	0.00176	0.00215	0.00261	0.00337	0.00397
